One test addresses T1, WRN enzyme (Homo sapiens, UniProt Q14191).
T1 construct: host or cells: eukaryotic cells (not further specified)
Put plainly: biochemical. As for the experimental part:
The WRN enzyme used in the experiment has a His-TEV tag at the N-terminus and is expressed in eukaryotic cells with a purity of 90%. The assay kit (ADP-Glo™ Kinase Assay) was purchased from Promega (Cat. No. V9101), aliquoted, and then stored in the refrigerator at -40°C. This kit could quantitatively detect the amount of ADP generated in the reaction. WRN hydrolyzed ATP to produce ADP. The ADP-Glo reagent was added to deplete excess ATP in the reaction system, followed by the addition of Kinase Detection Reagent to convert the ADP produced by the reaction into ATP and produce chemiluminescence. The enzyme activity of WRN can be reflected by detecting the chemiluminescence signal using a microplate reader.
Single-stranded DNA was annealed to form double-stranded DNA. 5× Annealing Buffer: 50 mM Tris pH 8.0, 100 mM NaCl. Annealing program: 95°C, 5 min.
2× WRN enzyme (1 nM) and 2× substrate (1 nM double-stranded DNA, 100 µM ATP) were prepared using a buffer (20 mM Bicine (pH 7.5), 10 mM KCl, 10 mM MgCl2, 0.005% BSG, 0.002% Tween 20, 1 mM TCEP). The test compound was dissolved in DMSO to 10 mM and was gradient-diluted using a 96-well V-bottom plate. First, 25 µL of 2× WRN enzyme and 0.5 µL of compound were added to a 96-well plate and incubated at room temperature for 30 min. Then, 25 µL of 2× substrate was added, and the reaction was carried out at room temperature for 60 min. 5 µL was taken from the reaction plate and transferred to a 384-well plate for detection. 5 µL of ADP-Glo reagent was added and incubated at room temperature for 60 min, followed by the addition of 10 µL of Kinase Detection Reagent and incubation at room temperature for 40 min. The chemiluminescence signal was detected using a microplate reader.

The next test has as its system SW48 cells. Put plainly: Cell proliferation assay (CellTiter-Glo), SW48. The test is classed as cell-based. The settings on record: Homo sapiens, SW48, 120 h, SW-48, 5 days incubation. As for the experimental part: (§1) SW48 cells were plated at a density of 1,500 cells/well, and LoVo, HCT116, and SW620 cells were plated at a density of 800 cells/well in a 96-well cell culture plate, and cultured in a 37°C incubator overnight. The test compounds, which were gradient-diluted with DMSO, were added, and after incubation for 5 days, cell viability was detected using a CellTiter-Glo kit. The CellTiter-Glo reagent was equilibrated to room temperature, and an appropriate amount was added to the cell plate, followed by shaking at room temperature for 12 min. The luminescence signal was detected using a microplate reader.
(§2) The luminescence signal values of the DMSO-treated wells and cell-free wells were used as negative and positive controls, respectively, to calculate the inhibition rate of compound on cell proliferation. The concentration-inhibition curve was fitted using the "log(inhibitor) vs. normalized response -- Variable slope" equation in GraphPad Prism 8 software to obtain the IC50. [formula]

The next test relates to SW620 cells. In words: Cell proliferation assay (CellTiter-Glo), SW620. The following applies: Homo sapiens, 120 h, SW-620 (MSS), 5 days incubation. It counts as cell-based. Here is the method:
as §1, §2

Another test has as its system HCT116 cells. Put plainly: Cell proliferation assay (CellTiter-Glo), HCT116. The settings on record: Homo sapiens, 120 h, HCT-116, 5 days incubation. It counts as cell-based. Here is the method: as §1, §2
The test system of the next test is LoVo. In words: Cell proliferation assay (CellTiter-Glo), LoVo. The test is classed as cell-based. The settings on record: Homo sapiens, 120 h, 5 days incubation. As for the experimental part: as §1, §2
Setting [1] is: read-out: WRN helicase activity (IC50 nM).

Like-named read-outs stand apart in the source and are kept apart here.

T1 sequence (Q14191 whole entry): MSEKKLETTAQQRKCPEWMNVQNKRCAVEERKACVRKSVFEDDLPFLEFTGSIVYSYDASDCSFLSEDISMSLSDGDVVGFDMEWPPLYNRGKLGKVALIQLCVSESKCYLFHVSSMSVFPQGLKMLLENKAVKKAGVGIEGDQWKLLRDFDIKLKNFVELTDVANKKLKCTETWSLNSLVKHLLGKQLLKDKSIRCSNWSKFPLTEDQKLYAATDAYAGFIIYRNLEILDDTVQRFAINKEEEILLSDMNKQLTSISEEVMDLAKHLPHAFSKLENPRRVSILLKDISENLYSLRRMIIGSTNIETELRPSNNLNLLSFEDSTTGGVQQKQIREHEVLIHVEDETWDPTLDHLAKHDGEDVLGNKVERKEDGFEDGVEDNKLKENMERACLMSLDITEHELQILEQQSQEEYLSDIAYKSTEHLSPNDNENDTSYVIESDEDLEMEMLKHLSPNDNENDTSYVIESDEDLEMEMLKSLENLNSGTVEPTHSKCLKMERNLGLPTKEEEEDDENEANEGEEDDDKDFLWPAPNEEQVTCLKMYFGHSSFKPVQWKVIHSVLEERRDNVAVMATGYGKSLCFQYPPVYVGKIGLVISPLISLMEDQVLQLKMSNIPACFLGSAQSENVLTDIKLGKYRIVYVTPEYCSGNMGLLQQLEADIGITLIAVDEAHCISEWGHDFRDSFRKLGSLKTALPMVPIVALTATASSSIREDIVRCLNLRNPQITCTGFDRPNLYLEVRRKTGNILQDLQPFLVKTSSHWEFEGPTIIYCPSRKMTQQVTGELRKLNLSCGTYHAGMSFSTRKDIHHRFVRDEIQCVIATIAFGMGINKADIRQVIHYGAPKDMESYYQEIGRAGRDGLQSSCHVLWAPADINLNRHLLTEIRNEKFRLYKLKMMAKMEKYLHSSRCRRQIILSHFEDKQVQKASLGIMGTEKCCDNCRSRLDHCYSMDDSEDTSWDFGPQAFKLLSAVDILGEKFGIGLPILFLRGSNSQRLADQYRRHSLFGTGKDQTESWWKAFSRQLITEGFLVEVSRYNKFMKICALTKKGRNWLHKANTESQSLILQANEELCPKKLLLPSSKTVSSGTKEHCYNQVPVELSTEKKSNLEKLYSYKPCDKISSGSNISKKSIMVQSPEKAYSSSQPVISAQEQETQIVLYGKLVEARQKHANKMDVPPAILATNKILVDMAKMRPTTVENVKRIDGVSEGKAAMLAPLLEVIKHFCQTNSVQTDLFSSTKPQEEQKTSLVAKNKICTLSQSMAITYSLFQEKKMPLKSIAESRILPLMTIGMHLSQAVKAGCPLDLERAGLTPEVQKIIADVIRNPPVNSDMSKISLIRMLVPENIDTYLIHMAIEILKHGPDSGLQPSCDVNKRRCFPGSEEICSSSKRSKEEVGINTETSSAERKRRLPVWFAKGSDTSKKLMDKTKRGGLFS

For `CCc1c(N2CCN(C(=O)c3ncnc(C)c3O)CC2)c(=O)c2nn(C3=CCOCC3)nc2n1CC(=O)Nc1ccc(S(F)(F)(F)(F)F)cc1` [Example 21], the IC50 on WRN enzyme (setting [1]) was determined as 24.4 nM.

With `CCc1c(N2CCN(C(=O)c3ncnc(C)c3O)CC2)c(=O)c2nn(C3=CCOCC3)nc2n1CC(=O)Nc1ccc2c(c1)CCC2` [Example 17], the IC50 against WRN enzyme is 34.7 nM; in the test with SW48 cells it was 126 nM; in the test on SW620 cells, above 25000 nM.

Consider `CCc1c(N2CCN(C(=O)c3ncnc(C)c3O)CC2)c(=O)c2nn(C3=CCOCC3)cc2n1CC(=O)Nc1ccc(C(F)(F)F)cc1Cl` [Example 5], for which the IC50 is 1580 nM in the test on HCT116 cells, 943 nM with SW48 cells, 2710 nM with LoVo and above 25000 nM with SW620 cells.

Consider `CCc1c(N2CCN(C(=O)c3ncnc(C)c3O)CC2)c(=O)c2nn(C3=CCOCC3)cc2n1CC(=O)Nc1ccc(S(F)(F)(F)(F)F)cc1` [Example 12], for which the results for the IC50 against WRN enzyme, in the test on SW48 cells and with SW620 cells were 86 nM, 317 nM and above 25000 nM, respectively.

Consider `CCc1c(N2CCN(C(=O)c3ncccc3O)CC2)c(=O)c2nn(C3=CCOCC3)cc2n1CC(=O)Nc1ccc(C(F)(F)F)cc1Cl` [Example 6], for which the half-inhibitory concentration (IC50) is 134 nM on WRN enzyme, 324 nM in the test with SW48 cells and above 25000 nM with SW620 cells.

Consider `CCc1c(N2CCN(C(=O)c3ncnc(C)c3O)CC2)c(=O)c2nn(C3=CCOCC3)nc2n1CC(=O)Nc1cc(F)c(C(F)(F)F)cc1F` [Example 23], for which the IC50 on WRN enzyme was 41.9 nM; with SW48 cells it was 102 nM; in the test on SW620 cells it was above 25000 nM.

As for `CCc1c(C2=CCN(C(=O)c3ncnc(C)c3O)CC2)c(=O)c2cn(C3=CCOCC3)nc2n1CC(=O)Nc1ccc(C(F)(F)F)cc1Cl` [Example 10], the IC50 against WRN enzyme was 238 nM; with HCT116 cells it was 552 nM; with SW48 cells it was 331 nM; in the test with LoVo it was 871 nM; in the test on SW620 cells, above 25000 nM.

For the compound `CCc1c(N2CCN(C(=O)c3ncnc(C)c3O)CC2)c(=O)c2nn(C3=CCOCC3)nc2n1CC(=O)Nc1ncc(C(F)(F)F)cc1Cl` [Example 13], the 50% inhibitory concentration (IC50) was 104 nM on WRN enzyme, 435 nM in the test with HCT116 cells and above 25000 nM in the test on SW620 cells.

Turning to `CCc1c(N2CCN(C(=O)c3ncnc(C)c3O)CC2)c(=O)c2nn(C3=CCOCC3)nc2n1CC(=O)Nc1ccc(C(F)(F)F)cc1C` [Example 8], the 50% inhibitory concentration (IC50) against WRN enzyme was 118 nM; with SW48 cells, 133 nM; with SW620 cells it was above 25000 nM.

Turning to `CCc1c(N2CCN(C(=O)c3ncnc(C)c3O)CC2)c(=O)c2nn(C3=CCOCC3)nc2n1CC(=O)Nc1cc(Cl)c(C(F)(F)F)cc1C` [Example 14], the values for the IC50 at WRN enzyme, in the test with SW48 cells and in the test with SW620 cells were 30.8 nM, 42.4 nM and above 25000 nM, respectively.

`CCc1c(N2CCN(C(=O)c3ncnc(C)c3O)CC2)c(=O)c2nn(C3=CCOCC3)nc2n1CC(=O)Nc1ccc(C(F)(F)F)cc1F` [Example 9]: the IC50 at WRN enzyme (setting [1]) is 94.9 nM.

With `CCc1c(N2CCN(C(=O)c3ncnc(C)c3O)CC2)c(=O)c2nn(C3=CCOCC3)nc2n1CC(=O)Nc1ccc2c(c1)CC2` [Example 16], the values for the IC50 at WRN enzyme, in the test with SW48 cells and in the test on SW620 cells were 42.6 nM, 148 nM and above 25000 nM, respectively.

For the compound `CCc1c(N2CCN(C(=O)c3ncccc3O)CC2)c(=O)c2nn(C3=CCOCC3)nc2n1CC(=O)Nc1ccc(C(F)(F)F)cc1Cl` [Example 20], the values for the IC50 at WRN enzyme, in the test with SW48 cells and in the test on SW620 cells were 35.5 nM, 33.8 nM and 23700 nM, respectively.

As for `CCc1c(N2CCN(C(=O)c3ncnc(C)c3O)CC2)c(=O)c2nn(C3=CCN(S(=O)(=O)C4CC4)CC3)cc2n1CC(=O)Nc1ccc(C(F)(F)F)cc1Cl` [Example 11], at WRN enzyme (setting [1]), the IC50 is 65.3 nM.

On to `CCc1c(N2CCN(C(=O)c3ncncc3O)CC2)c(=O)c2nn(C3=CCOCC3)nc2n1CC(=O)Nc1ccc(C(F)(F)F)cc1Cl` [Example 18], for which the half-inhibitory concentration (IC50) at WRN enzyme is 64.3 nM; in the test on SW48 cells, 51.1 nM; in the test on SW620 cells, above 25000 nM.

`CCc1c(N2CCN(C(=O)c3ncccc3O)CC2)c(=O)c2nn(C3=CCOCC3)nc2n1CC(=O)Nc1cc(F)c(C(F)(F)F)cc1Cl` [Example 19]: the half-maximal inhibitory concentration (IC50) against WRN enzyme was 44.3 nM; with SW48 cells, 60.9 nM; in the test on SW620 cells it was 20700 nM.
